# How the values were obtained:
# [1] = target: T1, Purified recombinant ADAMTS-7 (rat prodomain/human catalytic domain, SEQ ID No. 01 or 02) (Homo sapiens, UniProt Q9UKP4); test: Assay for ADAMTS-7 enzymatic activity (FRET substrate cleavage); type: biochemical; settings: FRET substrate SEQ ID No. 11, 120 min at 32° C.; read-out: ADAMTS7-IC50
# T1 construct: rat ADAMTS-7 signal peptide + prodomain (rat 1-217, Q1EHB3) (N); 2xStrep tag (C); 6xHis tag (C); made in house; host or cells: Expi293 cells
# T1 sequence (Q9UKP4 237-537): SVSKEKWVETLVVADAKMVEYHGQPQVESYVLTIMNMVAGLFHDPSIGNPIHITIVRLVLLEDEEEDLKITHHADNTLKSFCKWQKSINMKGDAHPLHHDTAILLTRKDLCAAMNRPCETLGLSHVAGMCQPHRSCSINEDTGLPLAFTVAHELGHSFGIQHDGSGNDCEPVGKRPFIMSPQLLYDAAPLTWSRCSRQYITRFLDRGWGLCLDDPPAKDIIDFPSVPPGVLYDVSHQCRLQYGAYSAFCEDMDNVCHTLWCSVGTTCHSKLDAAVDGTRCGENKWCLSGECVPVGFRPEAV
# Method: Purified recombinant ADAMTS-7 (as of SEQ ID No. 01 or SEQ ID No. 02) was diluted in reaction buffer (20 mM HEPES pH 8.0, 150 mM NaCl, 5 mM CaCl2, 0.004% Brij, 10 μM ZnCl2) fora concentration of approximately 20 nM. 25 μl of the solution were transferred into each well of a 384-well white microtiter plate (Greiner Bio-One 781075) and 1 μl test compound solution (modulator/inhibitor dissolved in DMSO, at the corresponding concentration) or pure DMSO as a control were added per well. […] Amino acids […] are derived from Thrombospondin-1 sequence (275-289). An additional carboxyl glutamic acid was added after the QXL520 quencher to increase substrate solubility. The microtiter plate was incubated for 120 min at the temperature of 32° C. The increase of fluorescence intensity was measured in appropriate fluorescence plate reader (e.g. TECAN Ultra) using excitation wavelength of 485 nm and emission wavelength of 520 nm. IC50 values were calculated from percentage of inhibition of ADAMTS-7 activity as a function of test compound concentration.
# ADAMTS4 = target: T2, ADAMTS4 (Homo sapiens, UniProt O75173); test: Selectivity assay for ADAMTS-7 modulators (FRET), ADAMTS4; type: biochemical; settings: 50 nM enzyme (R&D 4307-AD), 1 μM Dabcyl/Edans FRET substrate, 120 min at 32° C.
# T2 construct: purchased R&D 4307-AD
# T2 sequence (O75173 213-685 limits assumed): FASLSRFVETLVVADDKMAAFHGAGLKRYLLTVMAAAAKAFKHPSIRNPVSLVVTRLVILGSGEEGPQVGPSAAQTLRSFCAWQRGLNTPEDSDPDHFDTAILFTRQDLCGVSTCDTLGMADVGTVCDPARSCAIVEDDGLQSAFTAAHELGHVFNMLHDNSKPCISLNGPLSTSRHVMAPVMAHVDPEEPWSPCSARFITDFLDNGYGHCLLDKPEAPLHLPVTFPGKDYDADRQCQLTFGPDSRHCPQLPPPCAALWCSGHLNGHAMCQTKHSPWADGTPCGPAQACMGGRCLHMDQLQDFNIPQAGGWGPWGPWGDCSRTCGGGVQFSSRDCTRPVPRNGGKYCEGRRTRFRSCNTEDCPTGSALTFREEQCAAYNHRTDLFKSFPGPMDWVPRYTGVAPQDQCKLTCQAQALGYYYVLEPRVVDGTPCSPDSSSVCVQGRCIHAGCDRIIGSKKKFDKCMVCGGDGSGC
# Method: The respective enzyme (see table 2 below) was diluted in reaction buffer (50 mM Tris, 2.5 μM ZnCl2, 0.05% BSA, 0.001% Brij, pH 7.5 for ADAM17; 50 mM Tris 7.5, 150 mM NaCl, 10 mM CaCl2, 0.05% Brij for all other enzymes) to the respective concentration and 25 μl were transferred into each well of a 384-well white microtiter plate (Greiner Bio One 781075). 1 μl test compound solution (dissolved in DMSO, at the corresponding concentration) or pure DMSO as a control was added per well. The enzymatic reaction was initiated by addition of 25 μl of the respective concentration of the respective FRET substrate (see table 2 below) in reaction buffer. The microtiter plate was incubated for 120 min at the temperature of 32° C. The increase of fluorescence intensity was measured in appropriate fluorescence plate reader (e.g. TECAN Ultra) using the respective wavelengths for excitation and emission. IC50 values were calculated from percentage of inhibition of enzyme activity as a function of test compound concentration.
SMILES,IC50 [1],IC50 (ADAMTS4)
"O=C1NC(=O)C(CNC(=O)c2cnn(-c3ccccc3)n2)(CC2CC2)N1 (racemic) [Example 54, rac-N-[(4-(cyclopropylmethyl)-2,5-dioxoimidazolidin-4-yl)methyl}]-2-phenyl-2H-1,2,3-triazole-4-carboxamide]",0.67 µM,25 µM
"CCCC1(CNC(=O)c2cnn(-c3ccccc3)n2)NC(=O)NC1=O (racemic) [Example 55, rac-N-[(2,5-dioxo-4-propylimidazolidin-4-yl)methyl]-2-phenyl-2H-1,2,3-triazole-4-carboxamide]",0.24 µM,19 µM
"CC(C)(C)C1(CNC(=O)c2cnn(-c3ccccc3)c2)NC(=O)NC1=O (racemic) [Example 58, rac-N-[4-tert-butyl-2,5-dioxoimidazolidin-4-yl)methyl]-1-phenyl-1H-pyrazole-4-carboxamide]",0.55 µM,5.6 µM
"CCCC1(CNC(=O)c2cnn(-c3ccc(F)cc3)n2)NC(=O)NC1=O (racemic) [Example 65, rac-N-[(2,5-dioxo-4-propylimidazolidin-4-yl)methyl]-2-(4-fluorophenyl)-2H-1,2,3-triazole-4-carboxamide]",0.17 µM,19 µM
"CC(C)C1(CNC(=O)c2cnn(-c3cc(F)c(F)c(F)c3)n2)NC(=O)NC1=O (racemic) [Example 99, rac-N-[(4-isopropyl-2,5-dioxoimidazolidin-4-yl)methyl]-2-(3,4,5-trifluorophenyl)-2H-1,2,3-triazole-4-carboxamide]",0.052 µM,6 µM

# Further lines, results first:
IC50 [1],IC50 (ADAMTS4),SMILES
0.128 µM,9.95 µM,"O=C1NC(=O)C(CNC(=O)c2cnn(-c3ccccc3)n2)(C2CCOCC2)N1 (racemic) [Example 61, rac-N-[(4-(oxan-4-yl)-2,5-dioxoimidazolidin-4-yl)methyl]-2-phenyl-2H-1,2,3-triazole-4-carboxamide]"
0.042 µM,16 µM,"CC(C)C1(CNC(=O)c2cnn(-c3ccc(F)cc3)n2)NC(=O)NC1=O (racemic) [Example 62, rac-N-[(2,5-dioxo-4-(propan-2-yl)imidazolidin-4-yl)methyl]-2-(4-fluorophenyl)-2H-1,2,3-triazole-4-carboxamide]"
0.069 µM,6 µM,"CC(C)(C)C1(CNC(=O)c2cnn(-c3ccc(F)cc3)n2)NC(=O)NC1=O (racemic) [Example 63, rac-N-[(4-tert-butyl-2,5-dioxoimidazolidin-4-yl)methyl]-2-(4-fluorophenyl)-2H-1,2,3-triazole-4-carboxamide]"
0.26 µM,9.3 µM,"O=C1NC(=O)C(CNC(=O)c2cnn(-c3ccc(F)cc3)n2)(C2CCOCC2)N1 (racemic) [Example 67, rac-2-(4-fluorophenyl)-N-[4-(oxan-4-yl)-2,5-dioxoimidazolidin-4-yl)methyl]-2H-1,2,3-triazole-4-carboxamide]"
0.12 µM,8.3 µM,"CCCCC1(CNC(=O)c2cnn(-c3ccc(F)cc3)n2)NC(=O)NC1=O (racemic) [Example 68, rac-N-[(4-butyl-2,5-dioxoimidazolidin-4-yl)methyl]-2-(4-fluorophenyl)-2H-1,2,3-triazole-4-carboxamide]"
0.098 µM,35 µM,"O=C1NC(=O)C(CNC(=O)c2cnn(-c3ccc(F)cc3)n2)(C2CCC2)N1 (racemic) [Example 69, rac-N-[(4-cyclobutyl-2,5-dioxoimidazolidin-4-yl)methyl]-2-(4-fluorophenyl)-2H-1,2,3-triazole-4-carboxamide]"
0.098 µM,20 µM,"CC(C)C1(CNC(=O)c2cnn(-c3ccc(F)cc3F)n2)NC(=O)NC1=O (racemic) [Example 87, rac-2-(2,4-difluorophenyl)-N-[(4-isopropyl-2,5-dioxoimidazolidin-4-yl)methyl]-2H-1,2,3-triazole-4-carboxamide]"

# — patent US20230027985A1, “SUBSTITUTED HYDANTOINAMIDES AS ADAMTS7 ANTAGONISTS” (Bayer Aktiengesellschaft, priority 2019, published 2023)
